Measured values: paper PMC6057649, “Development of NanoLuc-PEST expressing Leishmania mexicana as a new drug discovery tool for axenic- and intramacrophage-based assays” (PLoS Neglected Tropical Diseases, 2018)

Test system: NanoLuc-PEST expressing L. mexicana axenic amastigotes
Assay: microbe, parasite or virus in culture
Format: cell-based
Settings: for Relative Bioluminescence (%) / viability at 2 µM / viability at 10 µM: 72 hours, relative to DMSO only control, n = 4; for EC50: hit compounds from the axenic amastigote screen, S3 Table, read-out: EC50, Axenic Amastigotes; for viability at 2 µM / viability at 10 µM: Leishmania mexicana, read-out: Relative Bioluminescence (%)

CN1CCC(c2cc(-c3ccncc3)c(-c3ccc(F)cc3)[nH]2)CC1 [MMV688703]
Relative Bioluminescence (%) (2 µM compound): 74.84% | Relative Bioluminescence (%) (10 µM compound): 81.84%

Cc1[nH]c2cc(F)cc(F)c2c(=O)c1-c1ccc(Oc2ccc(OC(F)(F)F)cc2)cc1 [MMV671636]
Relative Bioluminescence (%) (2 µM compound): 40.19% | Relative Bioluminescence (%) (10 µM compound): 3.97%

Cc1cc(Cl)ccc1NC(=O)CCc1ccc(S(=O)(=O)NCC(C)C)cc1 [MMV161996]
Relative Bioluminescence (%) (2 µM compound): 75.91% | Relative Bioluminescence (%) (10 µM compound): 98.90%

c1ccc(Oc2ccc(-c3cncc(-c4ccc5[nH]ccc5c4)n3)cc2)cc1 [MMV688178]
Relative Bioluminescence (%) (2 µM compound): 91.24% | Relative Bioluminescence (%) (10 µM compound): 94.95%

COc1ccccc1C(C)NCC(=O)Nc1cc(C(F)(F)F)ccc1Cl (stereo not drawn) [MMV020321]
Relative Bioluminescence (%) (2 µM compound): 118.65% | Relative Bioluminescence (%) (10 µM compound): 131.13%

CC(C)n1ncc2c(C(=O)NCC(c3cccs3)N3CCOCC3)cc(-c3ccccc3)nc21 (stereo not drawn) [MMV676406]
Relative Bioluminescence (%) (2 µM compound): 54.35% | Relative Bioluminescence (%) (10 µM compound): 35.79%

O=C(Nc1cccc(Cl)c1)c1cnc(N2CCN(c3ccncc3)CC2)c(Cl)c1 [MMV024406]
Relative Bioluminescence (%) (2 µM compound): 85.94% | Relative Bioluminescence (%) (10 µM compound): 93.72%

Cc1ccc(Oc2ccc(NC(=O)CNc3ccccc3N3CCCC3=O)cc2)cc1 [MMV020512]
Relative Bioluminescence (%) (2 µM compound): 56.59% | Relative Bioluminescence (%) (10 µM compound): 56.11%

Cc1noc(C)c1C(=O)N1CCCC(c2[nH]c3c(C)cccc3c2-c2ccncc2)C1 (stereo not drawn) [MMV020623]
Relative Bioluminescence (%) (2 µM compound): 68.14% | Relative Bioluminescence (%) (10 µM compound): 86.96%

CCc1ccccc1-n1c(C)cn2c3c(=O)n(C(C(=O)OC)C(C)C)c(=O)n(C)c3nc12 (stereo not drawn) [MMV688550]
Relative Bioluminescence (%) (2 µM compound): 66.32% | Relative Bioluminescence (%) (10 µM compound): 56.13%

CCS(=O)(=O)N(Cc1ccco1)Cc1cc2ccc(C)cc2[nH]c1=O [MMV676398]
Relative Bioluminescence (%) (2 µM compound): 115.47% | Relative Bioluminescence (%) (10 µM compound): 84.49%

Cc1ccc2nc(C)c(-c3ccn(Cc4ccccc4)n3)n2c1 [MMV688939]
Relative Bioluminescence (%) (2 µM compound): 75.51% | Relative Bioluminescence (%) (10 µM compound): 51.85%

O=C(NC1CCN(c2ccnc3ccccc23)C1)c1cccc(C(F)(F)F)c1 (stereo not drawn) [MMV023388]
Relative Bioluminescence (%) (2 µM compound): 84.10% | Relative Bioluminescence (%) (10 µM compound): 76.22%

CC(C)=CCC/C(C)=C\CNCCNC1C2CC3CC(C2)CC1C3 (stereo not drawn) [MMV687273]
Relative Bioluminescence (%) (2 µM compound): 68.48% | Relative Bioluminescence (%) (10 µM compound): 81.32%

CC(c1cc(Cl)cc(Cl)c1)N(C)c1ncc2c(N)nc(N)nc2n1 (stereo not drawn) [MMV689437]
Relative Bioluminescence (%) (2 µM compound): 37.21% | Relative Bioluminescence (%) (10 µM compound): 1.17%

c1ccc(-c2[nH]c3ccccc3c2C(c2ccccn2)N2CCCC2)cc1 (stereo not drawn) [MMV688762]
Relative Bioluminescence (%) (2 µM compound): 73.33% | Relative Bioluminescence (%) (10 µM compound): 84.34%

CO[C@@H](C(=O)N1Cc2[nH]nc(NC(=O)c3ccc(N4CCN(C)CC4)cc3)c2C1)c1ccccc1 [MMV676600]
Relative Bioluminescence (%) (2 µM compound): 110.66% | Relative Bioluminescence (%) (10 µM compound): 114.36%

CCC(=O)Nc1ccccc1C(=O)Nc1ccccn1 [MMV202553]
Relative Bioluminescence (%) (2 µM compound): 76.92% | Relative Bioluminescence (%) (10 µM compound): 77.09%

Cc1cc(C2=NOC(c3cc(Cl)c(F)c(Cl)c3)(C(F)(F)F)C2)ccc1C(=O)NCc1ccc2c(c1)C(C)(C)OB2O (stereo not drawn) [MMV687776]
Relative Bioluminescence (%) (2 µM compound): 57.43% | Relative Bioluminescence (%) (10 µM compound): -1.15%

O=C([C@@H](c1ccc(Cl)cc1)c1cccnc1)N1CCN(c2ccc(C(F)(F)F)cc2)CC1 [MMV689244]
Relative Bioluminescence (%) (2 µM compound): 23.97% | Relative Bioluminescence (%) (10 µM compound): 0.66%

CC1COC(Cn2cncn2)(c2ccc(Oc3ccc(Cl)cc3)cc2Cl)O1 (stereo not drawn) [MMV688943, Difenoconazol]
Relative Bioluminescence (%) (2 µM compound): 26.19% | Relative Bioluminescence (%) (10 µM compound): 8.96%

Cc1nc(-c2ccccn2)nc(NCCc2ccc(S(C)(=O)=O)cc2)c1Cl [MMV658993]
Relative Bioluminescence (%) (2 µM compound): 93.82% | Relative Bioluminescence (%) (10 µM compound): 64.93%

COc1ccc(-c2nn(C(C)C)c3ncnc(N)c23)cc1OC [MMV675993]
Relative Bioluminescence (%) (2 µM compound): 66.21% | Relative Bioluminescence (%) (10 µM compound): 27.37%

Nc1nccc2ccc(Oc3ccncc3)cc12 [MMV026313]
Relative Bioluminescence (%) (2 µM compound): 56.90% | Relative Bioluminescence (%) (10 µM compound): 66.48%

O=C(Nc1ccccc1)c1ccc(-c2cc3ccncc3cc2OC2CCNCC2)s1 [MMV024035]
Relative Bioluminescence (%) (2 µM compound): 86.60% | Relative Bioluminescence (%) (10 µM compound): 79.61%

O=C(CN1CCOCC1)Nc1ccc2ncnc(Nc3ccc(OCc4cccc(F)c4)c(Cl)c3)c2c1 [MMV688274]
Relative Bioluminescence (%) (2 µM compound): 72.23% | Relative Bioluminescence (%) (10 µM compound): 7.31%

CC(=O)OCC1OC([S-])C(OC(C)=O)C(OC(C)=O)C1OC(C)=O.CCP(CC)CC.[Au+] (stereo not drawn) [MMV688978, Auranofin, reference compound]
Relative Bioluminescence (%) (2 µM compound): -2.60% | Relative Bioluminescence (%) (10 µM compound): -2.20% | EC50: 170 nM

CC(=O)Nc1ccc(NC(=O)c2cc(-c3cc(Cl)ccc3O)n[nH]2)cc1 [MMV676380]
Relative Bioluminescence (%) (2 µM compound): 84.54% | Relative Bioluminescence (%) (10 µM compound): 97.79%

COc1cccc(NC(=O)c2c(NC(=O)c3cccnc3)sc3c2CCC3)c1 [MMV228911]
Relative Bioluminescence (%) (2 µM compound): 73.96% | Relative Bioluminescence (%) (10 µM compound): 11.53%

CC(C)(C)C(O)C(Oc1ccc(-c2ccccc2)cc1)n1cncn1 (stereo not drawn) [MMV688942, Bitertanol]
viability at 2 µM (2 µM compound): 21% | viability at 10 µM (10 µM compound): 15.4%

COc1ccc2nccc(NC(=O)C3CCN(CCc4ccc(Cl)cc4)CC3)c2n1 [MMV688844]
Relative Bioluminescence (%) (2 µM compound): 77.54% | Relative Bioluminescence (%) (10 µM compound): 91.56%

COc1cc(NC(=O)Cc2nn(C)c(=O)c3ccccc23)ccc1Cl [MMV676053]
Relative Bioluminescence (%) (2 µM compound): 106.26% | Relative Bioluminescence (%) (10 µM compound): 78.76%

CCC(Sc1nc2ccccc2o1)C(=O)Nc1nccs1 (stereo not drawn) [MMV676383]
Relative Bioluminescence (%) (2 µM compound): 136.33% | Relative Bioluminescence (%) (10 µM compound): 127.92%

COC(=O)c1c(NC(=O)c2cc3ccccc3oc2=O)sc2c1CCN(Cc1ccccc1)C2 [MMV676480]
Relative Bioluminescence (%) (2 µM compound): 96.73% | Relative Bioluminescence (%) (10 µM compound): 61.83%

CCc1ccc(S(=O)(=O)Nc2cc(CN3CCN(CCC(C)C)CC3)ccc2C)cc1 [MMV688124]
Relative Bioluminescence (%) (2 µM compound): 85.13% | Relative Bioluminescence (%) (10 µM compound): 56.21%

COc1ccc(C2=NN(C3CCCCCC3)C(=O)C2(C)C)cc1OCCCCOc1ccc(-c2nn[nH]n2)cc1 [MMV690028]
Relative Bioluminescence (%) (2 µM compound): 55.46% | Relative Bioluminescence (%) (10 µM compound): 1.50%

O=C(NC1CC1)c1ccc(CSCc2ccccc2Cl)o1 [MMV007803]
Relative Bioluminescence (%) (2 µM compound): 113.68% | Relative Bioluminescence (%) (10 µM compound): 107.95%

COc1ccc(OC(C)C(=O)Nc2ccc(Cl)cc2C)cc1 (stereo not drawn) [MMV202458]
Relative Bioluminescence (%) (2 µM compound): 83.71% | Relative Bioluminescence (%) (10 µM compound): 79.97%

CCN(CC)S(=O)(=O)c1ccc(Cl)c(C(=O)Nc2ccc3nc(C)sc3c2)c1 [MMV019721]
Relative Bioluminescence (%) (2 µM compound): 65.53% | Relative Bioluminescence (%) (10 µM compound): 69.43%

Nc1cccnc1Nc1ccc(Cl)cc1 [MMV676524]
Relative Bioluminescence (%) (2 µM compound): 60.00% | Relative Bioluminescence (%) (10 µM compound): 65.52%

Cc1nn(C)c(C)c1NS(=O)(=O)c1c(Cl)cc(-c2ccnc(N3CCNCC3)c2)cc1Cl [MMV688180]
Relative Bioluminescence (%) (2 µM compound): 98.32% | Relative Bioluminescence (%) (10 µM compound): 81.67%

CNC(=O)CNc1nc(-c2ccccn2)nc2scc(-c3ccccc3)c12 [MMV1029203]
Relative Bioluminescence (%) (2 µM compound): 83.99% | Relative Bioluminescence (%) (10 µM compound): 52.70%

Clc1ccc(CCNc2cc(-c3ccccc3)nc3ncnn23)cc1 [MMV688889]
Relative Bioluminescence (%) (2 µM compound): 73.23% | Relative Bioluminescence (%) (10 µM compound): 59.03%

O=C(C(Cc1c[nH]c2ccccc12)NS(=O)(=O)c1ccc(Cl)cc1)N1CCCCC1 (stereo not drawn) [MMV085210]
Relative Bioluminescence (%) (2 µM compound): 65.83% | Relative Bioluminescence (%) (10 µM compound): 73.33%

CCc1nc2ccc(Cl)cn2c1C(=O)NCc1ccc(N2CCC(c3ccc(OC(F)(F)F)cc3)CC2)cc1 [MMV687696]
Relative Bioluminescence (%) (2 µM compound): 113.56% | Relative Bioluminescence (%) (10 µM compound): 57.87%

COc1cc(OC)cc(C(=O)NCC2Cc3cc(Cl)cc(-c4ccncc4)c3O2)c1 (stereo not drawn) [MMV007471]
Relative Bioluminescence (%) (2 µM compound): 87.80% | Relative Bioluminescence (%) (10 µM compound): 69.68%

COc1ccc(C2(C(=O)Nc3ccc(Br)cc3)CCCC2)cc1 [MMV200748]
Relative Bioluminescence (%) (2 µM compound): 64.99% | Relative Bioluminescence (%) (10 µM compound): 61.91%

N#Cc1nc(-c2ccccc2)oc1S(=O)(=O)c1ccc(Cl)cc1 [MMV676412]
Relative Bioluminescence (%) (2 µM compound): 0.46% | Relative Bioluminescence (%) (10 µM compound): -0.09% | EC50: 260 nM

CC[C@@H]([C@H](C)O)n1ncn(-c2ccc(N3CCN(c4ccc(OC[C@@H]5CO[C@@](Cn6cncn6)(c6ccc(F)cc6F)C5)cc4)CC3)cc2)c1=O [MMV688774, Posaconazole, reference compound]
viability at 2 µM (2 µM compound): 31.3% | viability at 10 µM (10 µM compound): -1.25%

Cc1ccc(S(=O)(=O)n2cc(-c3ccnc(N)c3)c3cc(Br)cnc32)cc1 [MMV024114]
Relative Bioluminescence (%) (2 µM compound): 103.63% | Relative Bioluminescence (%) (10 µM compound): 69.99%

O=C(Nc1nnc(-c2ccc(Cl)s2)o1)c1ccc(Cl)s1 [MMV676501]
Relative Bioluminescence (%) (2 µM compound): -0.04% | Relative Bioluminescence (%) (10 µM compound): -0.69% | EC50: 300 nM

O=C(Nc1ccc(N2CCNCC2)cc1)c1ccn2ncc(-c3cccc(Cl)c3)c2n1 [MMV022478]
Relative Bioluminescence (%) (2 µM compound): 88.45% | Relative Bioluminescence (%) (10 µM compound): 5.54%

CCCS(=O)(=O)N1CCC(CO)(Cc2ccccc2C(F)(F)F)CC1 [MMV001059]
Relative Bioluminescence (%) (2 µM compound): 109.79% | Relative Bioluminescence (%) (10 µM compound): 96.75%

O=C(NCc1ccco1)N1CCN(Cc2ccc(Cl)s2)CC1 [MMV688555]
Relative Bioluminescence (%) (2 µM compound): 63.56% | Relative Bioluminescence (%) (10 µM compound): 83.23%

CS(=O)(=O)N1CCC(Cn2nc(Cc3cccc4ccccc34)c3c(N)ncnc32)CC1 [MMV676050]
Relative Bioluminescence (%) (2 µM compound): 74.33% | Relative Bioluminescence (%) (10 µM compound): 42.99%

CC(C)(C)C(=O)N(CCCCCCN1C[C@H](O)[C@@H](O)[C@H](O)[C@H]1CO)C1CCCCCC1 [MMV688543]
Relative Bioluminescence (%) (2 µM compound): 65.10% | Relative Bioluminescence (%) (10 µM compound): 39.32%

COc1cc(CN2CCC3(C=Cc4ccccc43)CC2)cc2c1OCO2 [MMV688941]
Relative Bioluminescence (%) (2 µM compound): 78.23% | Relative Bioluminescence (%) (10 µM compound): 74.74%
